Assay results: US20250345383A1, “INTRANASAL ADMINISTRATION OF POLYSULFIDE” (The General Hospital Corporation, priority 2022, published 2025)

Assays:
[1] = tested on: mice subjected to SCI; test: Mouse model of spinal cord ischemia (SCI): delayed paraplegia, hindlimb motor function by Basso mouse scale (BMS); format: in vivo
Excerpt: Adult C57BL/6J mice (12-18 weeks old) of both sexes were purchased from Jackson Laboratory (Bar Harbor, ME, USA). Both male and female mice were used in experiments to investigate the neuroprotective effect of GSSSG on motor function after SCI. […] All mice were housed in a temperature and humidity-controlled room in the animal center with a 12-hour light/dark cycle, and were provided with food and water ab libitum. To permit access by mice that were recovering from surgery, additional food pellets were inserted into hydrated gel placed on the bedding. A randomized paired design was used to minimize the variability between each treatment group. Mice were paired based on weight, age, delivery dates, and when possible, holding cages. After the pairing, mice were randomly assigned to different treatments.
The surgical procedures to produce delayed paraplegia in mice were performed as previously described^6 (FIG. 2A). Mice were anesthetized with 5% isoflurane in 100% O2 and tracheally intubated with a 20-gauge catheter (Angiocath; Becton Dickinson, Franklin Lakes, NJ, USA). […] The paravertebral muscle temperature was measured using a T-type implantable thermocouple probe (IT-18) and a T-type pod (ADInstruments, Colorado Springs, CO, USA). […] A median sternotomy extended from the apex of the manubrium to the second rib. The aortic arch was gently isolated between the left common carotid artery (LCCA) and the left subclavian artery (LSA), avoiding the vagus nerve and the left recurrent laryngeal nerve. […] After ischemia, the clips were removed in reverse order. Incisions were closed in layers and mechanical ventilation was discontinued. After stable spontaneous respiration was confirmed, mice were extubated.
The previously described surgical procedures^6 were modified as follows. The respiratory rate during the procedure was increased to 230 breaths/minute, because hyperventilation promotes the occurrence of delayed paraplegia caused by spinal cord ischemia^33. A laser Doppler perfusion monitor (moorVMS-LDF1; Moor Instruments, Millwey, UK) was used to monitor the femoral artery blood flow^28,29. […] To improve the accuracy of surgical procedures, a microscope (Leica MZ95; Leica Microsystems, Buffalo Grove, IL, USA) was used to isolate the aortic arch and place the clips.
Study drugs were administered intranasally using a single-channel pipettor. Mice were anesthetized with 3% isoflurane using a non-rebreathing circuit with a mouse nose cone (VetEquip, Inc., Livermore, CA, USA). While the drugs were administered, the nose cone was removed and mice were allowed to breathe air. Approximately 6 μL of each drug was administered into the mouse's nostrils and the mouse inhaled the droplets during inspiration. […]

[2] = tested on: primary cortical neurons; test: Cell viability after oxygen and glucose deprivation/reoxygenation (OGD/R), primary cortical neurons; format: cell-based, mouse; details: GSSSG at 30 μM, GSH at 60 μM, GSSG at 30 μM; vs vehicle-only treated cells
Procedure: Primary cortical neurons were isolated from the cerebral cortices of C57BL/6J mice of both sexes at embryonic day 15, as previously described 39. Primary cortical neurons were maintained at 37° C. in a humidified tissue culture chamber with 5% CO2 and cells were used on day 11 after harvest. […] After reoxygenation, cell viability and cell injury were assessed using crystal violet and lactate dehydrogenase (LDH) assays, as previously described^39.

[3] = LC-MS/MS of ^34S-labeled GSSSG and sulfane sulfur species in CNS and plasma after intranasal GS^34SSG; format: in vivo, mouse
Procedure: We used LC-MS/MS analysis to measure the amount of ^34S-labeled GSSSG ([^32S2, ^34S]GSSSG) in the CNS and plasma after intranasal administration of GS^34SSG, an isotope of endogenous GSSSG^9,35,36. The ratios of ^34S-labeled sulfane sulfur species ([^32S, ^34S]GSSH, [^32S, ^34S]cysteine hydropersulfide (CysSSH), and [^32S2, ^34S]cysteine trisulfide (CysSSSCys)) to endogenous sulfane sulfur species ([^32S2]GSSH, [^32S2]CysSSH, and […]) were also quantitatively evaluated. At 30 minutes after intranasal administration of 50 mg/kg of GS^34SSG, blood was obtained and four different central nervous tissues were harvested: olfactory bulb and forebrain; brainstem; cervical and thoracic spinal cord, and lumbar spinal cord. A total of 30 mg of each tissue was homogenized in 300 μl of ice-cold methanol solution containing 5 mM β-(4-hydroxyphenyl)ethyl iodoacetamide (HPE-IAM; Santa Cruz Biotechnology, Dallas, TX, USA). Twenty-five μl of plasma was mixed with 75 μl of ice-cold methanol solution containing 5 mM HPE-IAM. Samples were incubated for 20 minutes at 37° C. in the dark. After centrifugation (14,000×g for tissues, 1,870×g for plasma, 10 minutes, 4° C.), the supernatant was separated and diluted with 0.1% formic acid for LC-MS/MS analysis, and the pellet was sonicated to measure the protein concentration by BCA assay. The amount of [^32S2, ^34S]GSSSG was quantified in selective reaction monitoring (SRM) with precursor ion (647.14 m/z), product ion (389.1 m/z), and higher energy collisional dissociation (21 v). The ratios of [^32S, ^34S]GSSH to [^32S2]GSSH, [^32S, ^34S]CysSSH to [^32S2]CysSSH, and [^32S2, ^34S]CysSSSCys to [^32S3]CysSSSCys were calculated from their peak area measured by Dionex UltiMate 3000 RS UPLC-Orbitrap Exploris 480 mass spectrometer (Thermo Fisher Scientific, Waltham, MA, USA). In brief, samples were subjected to the UPLC system with a Hypersil Gold C-18 (100×2.1 mm, 3.0 μm, Thermo Fisher Scientific, Waltham, MA, USA) column and were then eluted by a linear methanol gradient of the mobile phase (0-90%, 15 minutes) in the presence of 0.1% formic acid at a flow rate of 0.2 ml/minute at 40° C. The raw data were analyzed by Compound Discoverer 3.3 software (Thermo Fisher Scientific, Waltham, MA, USA). The molecular weights of these sulfane sulfur species combined with HPE-IAM were determined based on previous reports^9,11,37.

[4] = tested on: murine primary cortical neurons; test: Cell viability of murine primary cortical neurons incubated with MPP+ (crystal violet assay); format: cell-based, mouse; details: MPP+ 50 μM, 24 hours
Procedure: (§1) Cell viability assays was performed to examine cell viabilities of SH-SY5Y cells or murine primary cortical neurons 24 h after the addition of MPP^+ (5 mM for SH-SY5Y, 50 μM for primary cortical neurons) with vehicle (PBS), Na2S (Sigma-Aldrich), Na2S3 (Dojindo Molecular Technologies, Inc), GSSSG (Glutathione trisulfide, Kyowa Hakko Bio Co., Ltd., Tokyo, Japan), LA (α-Lipoic acid, Sigma-Aldrich) or LASSS (α-Lipoic acid trisulfide, Kyowa Hakko Bio Co., Ltd., Tokyo, Japan). Cell viability was measured using the crystal violet assay.

[5] = tested on: SH-SY5Y cells; test: Cell viability of SH-SY5Y cells incubated with MPP+ (crystal violet assay); format: cell-based, human; details: MPP+ 5 mM, 24 h
Procedure: as §1

[6] = tested on: primary cortical neurons; test: Relative sulfane sulfur levels in primary cortical neurons (SSip-1 DA); format: cell-based, mouse; details: incubation at 10 μM for 20 minutes; relative to untreated neurons
Procedure: Primary cortical neurons were isolated from the cerebral cortices of C57BL/6J mice of both sexes at embryonic day 15, as previously described 39. Primary cortical neurons were maintained at 37° C. in a humidified tissue culture chamber with 5% CO2 and cells were used on day 11 after harvest.
(§2) Primary cortical neurons or SH-SY5Y cells, a human neuroblastoma cell line (American Type Culture Collection, Manassas, VA, USA), were incubated with SSip-1 DA […] at 37° C. for 20 minutes in the dark. Cells were washed with pre-warmed HBSS containing calcium and magnesium (Thermo Fisher Scientific, Waltham, MA, USA) and then cells were incubated with GSSSG, sodium trisulfide (Na2S3; Dojindo Molecular Technologies, Inc., Rockville, MD, USA), PTN-SSS, or vehicle alone for 20 minutes at 37° C. in the dark. Fluorescence intensities were measured using a microplate reader.

[7] = tested on: SH-SY5Y cells; test: Relative sulfane sulfur levels in SH-SY5Y cells (SSip-1 DA); format: cell-based, human; details: PTN-SSS 10-50 μM; vs vehicle-only treated cells
Procedure: as §2

[8] = Stability of PTN-SSS in solution; format: physicochemical; details: pH 4.0-9.0 at room temperature
[9] = tested on: sulfane sulfur in olfactory bulb and forebrain, whole spinal cord; test: Relative sulfane sulfur levels in olfactory bulb and forebrain and whole spinal cord after intranasal PTN-SSS (SSip-1); format: in vivo, mouse; details: 30 minutes after intranasal 50 mg/kg PTN-SSS; vs vehicle alone
Procedure: At 30 minutes after intranasal administration of 50 mg/kg of PTN-SSS, the olfactory bulb and forebrain and the whole spinal cord were harvested. Tissues were homogenized in HBSS containing […] of SSip-1. The fluorescence intensities of supernatants were measured.

[10] = Water solubility of PTN-SSS; format: physicochemical
[11] = tested on: SH-SY5Y cells; test: Cell viability after OGD/R, SH-SY5Y cells; format: cell-based, human
Procedure: After reoxygenation, cell viability and cell injury were assessed using crystal violet and lactate dehydrogenase (LDH) assays, as previously described^39.

[12] = 30 minutes after intranasal 50 mg/kg GS^34SSG, mean ± SD

Q: Which “mice in which development of delayed paraplegia was prevented” value ([1]; male mice, n=11 per group, intranasal at 0, 8, 23, 32 hours after surgery, GSSSG 50 mg/kg, GSH 45.2 mg/kg) does the source give for `N[C@@H](CCC(=O)N[C@@H](CS)C(=O)NCC(=O)O)C(=O)O` [GSH, glutathione, reference compound] here?
A: The value was 27%.

Q: And the “cell viability after OGD/R, crystal violet assay (GSSSG, GSH, GSSG comparison)” value [2]?
A: Its value is “did not improve cell viability”.

Q: For `N[C@@H](CCC(=O)N[C@@H](CS[34S]SC[C@H](NC(=O)CC[C@H](N)C(=O)O)C(=O)NCC(=O)O)C(=O)NCC(=O)O)C(=O)O` [GS^34SSG], which “[^32S2, ^34S]GSSSG concentration in plasma” value [3, 12] is on record?
A: The value was 25 ± 10 nM.

Q: And the “[^32S2, ^34S]GSSSG in brainstem” value [3, 12]?
A: Its value is 226±101 pmol/mg protein.

Q: And the “[^32S2, ^34S]GSSSG in cervical and thoracic spinal cord” value [3, 12]?
A: The value was 414±98 pmol/mg protein.

Q: And the “[^32S2, ^34S]GSSSG in lumbar spinal cord” value [3, 12]?
A: Its value is 317±111 pmol/mg protein.

Q: What about the “[^32S2, ^34S]GSSSG in olfactory bulb and forebrain” value [3, 12] of the same compound?
A: The value was 128±67 pmol/mg protein.

Q: What about the “ratio of [^32S2, ^34S]CysSSSCys to [^32S3]CysSSSCys in brain and spinal cord” value [3, 12] of the same compound?
A: The value was 31.8±9.8.

Q: And the “ratio of [^32S, ^34S]GSSH to [^32S2]GSSH in brain and spinal cord” value [3, 12]?
A: The value was 6.5±2.8.

Q: What about the “concentration of ^34S-labeled GSSSG in the central nervous system” value ([3]; 30 minutes after intranasal GS^34SSG, all CNS tissues) of the same compound?
A: Its value is 268±140 pmol/mg protein.

Q: And the “level of ^34S-labeled CysSSH in lumbar spinal cord” value ([3]; after intranasal GS^34SSG, worked out from previously reported endogenous CysSSH level)?
A: The value was about 18 pmol/mg protein.

Q: What about the “level of ^34S-labeled GSSH in lumbar spinal cord” value ([3]; after intranasal GS^34SSG, worked out from previously reported endogenous GSSH level) of the same compound?
A: The value was “approximately 1,600 pmol/mg protein”.

Q: With `O=C(O)CCCCC1CCSSS1` (centres unmarked) [LA-SSS, 1,2,3-trithiane-4-pentanoic acid] as the compound, how does the “protection of murine primary cortical neurons from the effects of MPP+ treatment” value [4] read?
A: The value was “protected”.

Q: Which “viability of MPP+-treated SH-SY5Y cells” value ([5]; 10 μM each) does the source give for `[Na+].[Na+].[S-]S[S-]` [Na2S3, sodium trisulfide, reference compound] here?
A: The value was “increased the viability”.

Q: What about the “levels of intracellular sulfane sulfur in primary cortical neurons” value [6] of the same compound?
A: Its value is “increased levels of intracellular sulfane sulfur”.

Q: For `[Na+].[Na+].[S-2]` [Na2S], which “viability of SH-SY5Y cells treated with MPP+” value ([5]; Na2S doses between 1 and 100 μM) is on record?
A: Its value is “did not improve the viability”.

Q: With `CC(C)(CO)[C@@H](O)C(=O)NCCC(=O)NCCSSSCCNC(=O)CCNC(=O)[C@H](O)C(C)(C)CO` [PTN-SSS, pantethine trisulfide] as the compound, how does the “male mice rescued from delayed paraplegia” value ([1]; PTN-SSS study, n=9 per group, intranasal PTN-SSS 50 mg/kg or PTN 47.3 mg/kg at 0, 8, 23, 32 hours after surgery) read?
A: The value was 66%.

Q: What about the “sulfane sulfur levels in SH-SY5Y cells” value [7] of the same compound?
A: Its value is “increased significantly”.

Q: What about the stable in solution [8] of the same compound?
A: The stable in solution was “at least 4 days”.

Q: And the “sulfane sulfur levels in the olfactory bulb and forebrain and the whole spinal cord” value [9]?
A: The value was “increased sulfane sulfur levels”.

Q: What about the water solubility [10] of the same compound?
A: The water solubility was over 50 mg/mL.

Q: And the “SH-SY5Y viability after OGD/R, crystal violet assay” value ([11]; PTN-SSS at 10 μM, 25 μM, or 50 μM, vs vehicle-only treated cells)?
A: Its value is “significantly improved”.

Q: And the “SH-SY5Y viability after OGD/R, crystal violet assay” value ([11]; PTN-SSS at 100 μM)?
A: The value was “did not improve cell viability”.
